Assay results published in patent US20260285850A1, “SUBSTITUTED OXAZOLIDINONES AND IMIDAZOLINONES AS HERBICIDES” (FMC CORPORATION, priority 2023, published 2026).

Experiments:
Format in all cases: in vivo
[1] = tested on: kochia (Bassia scoparia); experiment: Test A preemergence soil spray, visual injury rating 0-100; settings: 10 days, 0 = no effect, 100 = complete control; for Kochia plant response rating (0-100): 31 g ai/ha; for Kochia plant response rating (0 to 100 scale): 125 g ai/ha
Outline: (§1)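 Rating: visual, day 10, untreated plants as reference, 0 no effect to 100 full control. Plants were in loam-sand and were treated either preemergence via directed soil spray or postemergence at the one- to two-leaf stage.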

[2] = tested on: corn (Zea mays); experiment: as above; settings: 10 days, 0 = no effect, 100 = complete control; for Corn plant response rating (0-100): 31 g ai/ha; for Corn plant response rating (0 to 100 scale): 125 g ai/ha
Outline: as §1

[3] = tested on: wheat (Triticum aestivum); experiment: as above; settings: 10 days, 0 = no effect, 100 = complete control; for Wheat plant response rating (0-100): 31 g ai/ha; for Wheat plant response rating (0 to 100 scale): 125 g ai/ha
Outline: as §1

[4] = tested on: barnyardgrass (Echinochloa crus-galli); experiment: as above; settings: 10 days, 0 = no effect, 100 = complete control; for Barnyardgrass plant response rating (0-100): 31 g ai/ha; for Barnyardgrass plant response rating (0 to 100 scale): 125 g ai/ha
Outline: as §1

[5] = tested on: oat, wild (wild oat, Avena fatua); experiment: as above; settings: 10 days, 0 = no effect, 100 = complete control; for Oat, Wild plant response rating (0-100): 31 g ai/ha; for Oat, Wild plant response rating (0 to 100 scale): 125 g ai/ha
Outline: as §1

[6] = tested on: blackgrass (Alopecurus myosuroides); experiment: as above; settings: 10 days, 0 = no effect, 100 = complete control; for Blackgrass plant response rating (0-100): 31 g ai/ha; for Blackgrass plant response rating (0 to 100 scale): 125 g ai/ha
Outline: as §1

[7] = tested on: palmer (palmer amaranth, palmer pigweed, Amaranthus palmeri); experiment: as above; settings: 10 days, 0 = no effect, 100 = complete control; for Amaranth, Palmer plant response rating (0-100): 31 g ai/ha; for Amaranth, Palmer plant response rating (0 to 100 scale): 125 g ai/ha
Outline: as §1

[8] = tested on: ryegrass, Italian (italian ryegrass, Lolium multiflorum); experiment: as above; settings: 10 days, 0 = no effect, 100 = complete control; for Ryegrass, Italian plant response rating (0-100): 31 g ai/ha; for Ryegrass, Italian plant response rating (0 to 100 scale): 125 g ai/ha
Outline: as §1

[9] = tested on: ragweed (common ragweed, Ambrosia artemisiifolia); experiment: as above; settings: 10 days, 0 = no effect, 100 = complete control; for Ragweed plant response rating (0-100): 31 g ai/ha; for Ragweed plant response rating (0 to 100 scale): 125 g ai/ha
Outline: as §1

[10] = tested on: soybean (Glycine max); experiment: as above; settings: 10 days, 0 = no effect, 100 = complete control; for Soybean plant response rating (0-100): 31 g ai/ha; for Soybean plant response rating (0 to 100 scale): 125 g ai/ha
Outline: as §1

[11] = tested on: kochia (Bassia scoparia); experiment: Test A postemergence application, visual injury rating 0-100; settings: for Kochia plant response rating (0 to 100 scale): Postemergence
Outline: as §1

[12] = tested on: corn (Zea mays); experiment: as above; settings: for Corn plant response rating (0 to 100 scale): Postemergence
Outline: as §1

[13] = tested on: wheat (Triticum aestivum); experiment: as above; settings: for Wheat plant response rating (0 to 100 scale): Postemergence
Outline: as §1

[14] = tested on: barnyardgrass (Echinochloa crus-galli); experiment: as above; settings: for Barnyardgrass plant response rating (0 to 100 scale): Postemergence
Outline: as §1

[15] = tested on: oat, wild (wild oat, Avena fatua); experiment: as above; settings: for Oat, Wild plant response rating (0 to 100 scale): Postemergence
Outline: as §1

[16] = tested on: blackgrass (Alopecurus myosuroides); experiment: as above; settings: for Blackgrass plant response rating (0 to 100 scale): Postemergence
Outline: as §1

[17] = tested on: galium (catchweed bedstraw, Galium aparine); experiment: as above; settings: for Galium plant response rating (0 to 100 scale): Postemergence
Outline: as §1

[18] = tested on: palmer (palmer amaranth, palmer pigweed, Amaranthus palmeri); experiment: as above; settings: for Amaranth, Palmer / Pigweed, Palmer plant response rating (0 to 100 scale): Postemergence
Outline: as §1

[19] = tested on: ryegrass, Italian (italian ryegrass, Lolium multiflorum); experiment: as above; settings: for Ryegrass, Italian plant response rating (0 to 100 scale): Postemergence
Outline: as §1

[20] = tested on: ragweed (common ragweed, Ambrosia artemisiifolia); experiment: as above; settings: for Ragweed plant response rating (0 to 100 scale): Postemergence
Outline: as §1

[21] = tested on: soybean (Glycine max); experiment: as above; settings: for Soybean plant response rating (0 to 100 scale): Postemergence
Outline: as §1

[22] = tested on: horseweed (Erigeron canadensis); experiment: as above; settings: for Horseweed plant response rating (0 to 100 scale): Postemergence
Outline: as §1

[23] = tested on: ducksalad (Heteranthera limosa); experiment: Test B flooded paddy test, visual plant response rating 0-100; settings: 250 g ai/ha, Flood, applied to paddy water, evaluated after 13 days
Outline: (§2)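 Compounds applied to standing paddy water (3 cm above soil, maintained for the test duration) on 2-leaf-stage plants; visual rating vs controls at 13 days, greenhouse.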

[24] = tested on: rice (Oryza sativa); experiment: as above; settings: 250 g ai/ha, Flood, applied to paddy water, evaluated after 13 days
Outline: as §2

[25] = tested on: barnyardgrass (Echinochloa crusgalli); experiment: as above; settings: 250 g ai/ha, Flood, applied to paddy water, evaluated after 13 days
Outline: as §2

[26] = tested on: sedge, umbrella (small-flower umbrella sedge, Cyperus difformis); experiment: as above; settings: 250 g ai/ha, Flood, applied to paddy water, evaluated after 13 days
Outline: as §2

[27] = 31 g ai/ha, postemergence, 10 days, 0 = no effect, 100 = complete control
[28] = 125 g ai/ha, 10 days, 0 is no effect, 100 is complete control
[29] = 31 g ai/ha, greenhouse 10 days, 0 no effect, 100 complete control

Structure (SMILES): CCOC(=O)C1=CCC(NC(=O)C2(C)CN(c3cc(Cl)cc(Cl)c3)C(=O)O2)C1 (stereo not drawn) [Compound 60]
- Kochia plant response rating (0-100) [1]: 40
- Kochia plant response rating (0 to 100 scale) [1]: 90
- Corn plant response rating (0-100) [2]: 0
- Corn plant response rating (0 to 100 scale) [2]: 60
- Wheat plant response rating (0-100) [3]: 20
- Wheat plant response rating (0 to 100 scale) [3]: 80
- Barnyardgrass plant response rating (0-100) [4]: 60
- Barnyardgrass plant response rating (0 to 100 scale) [4]: 100
- Oat, Wild plant response rating (0-100) [5]: 0
- Oat, Wild plant response rating (0 to 100 scale) [5]: 20
- Blackgrass plant response rating (0-100) [6]: 0
- Blackgrass plant response rating (0 to 100 scale) [6]: 50
- Amaranth, Palmer plant response rating (0-100) [7]: 100
- Amaranth, Palmer plant response rating (0 to 100 scale) [7]: 100
- Ryegrass, Italian plant response rating (0-100) [8]: 60
- Ryegrass, Italian plant response rating (0 to 100 scale) [8]: 90
- Ragweed plant response rating (0-100) [9]: 30
- Ragweed plant response rating (0 to 100 scale) [9]: 60
- Soybean plant response rating (0-100) [10]: 10
- Soybean plant response rating (0 to 100 scale) [10]: 40
- Kochia plant response rating (0-100) [11, 27]: 80
- Kochia plant response rating (0 to 100 scale) [11, 28]: 80
- Corn plant response rating (0-100) [12, 27]: 90
- Corn plant response rating (0 to 100 scale) [12, 28]: 100
- Wheat plant response rating (0-100) [13, 27]: 40
- Wheat plant response rating (0 to 100 scale) [13, 28]: 90
- Barnyardgrass plant response rating (0-100) [14, 27]: 90
- Barnyardgrass plant response rating (0 to 100 scale) [14, 28]: 90
- Oat, Wild plant response rating (0-100) [15, 27]: 10
- Oat, Wild plant response rating (0 to 100 scale) [15, 28]: 90
- Blackgrass plant response rating (0-100) [16, 27]: 90
- Blackgrass plant response rating (0 to 100 scale) [16, 28]: 100
- Galium plant response rating (0-100) [17, 27]: 90
- Galium plant response rating (0 to 100 scale) [17, 28]: 90
- Amaranth, Palmer plant response rating (0-100) [18, 27]: 90
- Amaranth, Palmer / Pigweed, Palmer plant response rating (0 to 100 scale) [18, 28]: 100
- Ryegrass, Italian plant response rating (0-100) [19, 27]: 90
- Ryegrass, Italian plant response rating (0 to 100 scale) [19, 28]: 100
- Ragweed plant response rating (0-100) [20, 27]: 0
- Ragweed plant response rating (0 to 100 scale) [20, 28]: 20
- Soybean plant response rating (0-100) [21, 27]: 90
- Soybean plant response rating (0 to 100 scale) [21, 28]: 100
- Horseweed plant response rating (0-100) [22, 27]: 70
- Horseweed plant response rating (0 to 100 scale) [22, 28]: 90
- Plant response rating, Ducksalad (0 to 100 scale, 0 is no effect and 100 is complete control) [23]: 95
- Plant response rating, Rice (0 to 100 scale, 0 is no effect and 100 is complete control) [24]: 65
- Plant response rating, Barnyardgrass (0 to 100 scale, 0 is no effect and 100 is complete control) [25]: 70
- Plant response rating, Sedge, Umbrella (0 to 100 scale, 0 is no effect and 100 is complete control) [26]: 100

Structure (SMILES): CC1(C(=O)NC2C=CC(C(=O)ON=Cc3ccccc3)C2)CN(c2cc(F)cc(F)c2)C(=O)O1 (stereo not drawn) [Compound 68]
- Kochia plant response rating (0-100) [1]: 80
- Kochia plant response rating (0 to 100 scale) [1]: 90
- Corn plant response rating (0-100) [2]: 0
- Corn plant response rating (0 to 100 scale) [2]: 80
- Wheat plant response rating (0-100) [3]: 80
- Wheat plant response rating (0 to 100 scale) [3]: 90
- Barnyardgrass plant response rating (0-100) [4]: 90
- Barnyardgrass plant response rating (0 to 100 scale) [4]: 100
- Oat, Wild plant response rating (0-100) [5]: 60
- Oat, Wild plant response rating (0 to 100 scale) [5]: 90
- Blackgrass plant response rating (0-100) [6]: 50
- Blackgrass plant response rating (0 to 100 scale) [6]: 70
- Amaranth, Palmer plant response rating (0-100) [7]: 100
- Amaranth, Palmer plant response rating (0 to 100 scale) [7]: 100
- Ryegrass, Italian plant response rating (0-100) [8]: 70
- Ryegrass, Italian plant response rating (0 to 100 scale) [8]: 80
- Ragweed plant response rating (0-100) [9]: 0
- Ragweed plant response rating (0 to 100 scale) [9]: 20
- Soybean plant response rating (0-100) [10]: 0
- Soybean plant response rating (0 to 100 scale) [10]: 70
- Kochia plant response rating (0 to 100 scale) [11, 29]: 80
- Kochia plant response rating (0 to 100 scale) [11, 28]: 90
- Corn plant response rating (0 to 100 scale) [12, 29]: 80
- Corn plant response rating (0 to 100 scale) [12, 28]: 100
- Wheat plant response rating (0 to 100 scale) [13, 29]: 80
- Wheat plant response rating (0 to 100 scale) [13, 28]: 90
- Barnyardgrass plant response rating (0 to 100 scale) [14, 29]: 90
- Barnyardgrass plant response rating (0 to 100 scale) [14, 28]: 90
- Oat, Wild plant response rating (0 to 100 scale) [15, 29]: 30
- Oat, Wild plant response rating (0 to 100 scale) [15, 28]: 90
- Blackgrass plant response rating (0 to 100 scale) [16, 29]: 70
- Blackgrass plant response rating (0 to 100 scale) [16, 28]: 90
- Galium plant response rating (0 to 100 scale) [17, 29]: 90
- Galium plant response rating (0 to 100 scale) [17, 28]: 90
- Amaranth, Palmer / Pigweed, Palmer plant response rating (0 to 100 scale) [18, 29]: 90
- Amaranth, Palmer / Pigweed, Palmer plant response rating (0 to 100 scale) [18, 28]: 90
- Ryegrass, Italian plant response rating (0 to 100 scale) [19, 29]: 90
- Ryegrass, Italian plant response rating (0 to 100 scale) [19, 28]: 100
- Ragweed plant response rating (0 to 100 scale) [20, 29]: 0
- Ragweed plant response rating (0 to 100 scale) [20, 28]: 80
- Soybean plant response rating (0 to 100 scale) [21, 29]: 90
- Soybean plant response rating (0 to 100 scale) [21, 28]: 100
- Horseweed plant response rating (0 to 100 scale) [22, 29]: 50
- Horseweed plant response rating (0 to 100 scale) [22, 28]: 90
- Plant response rating, Ducksalad (0 to 100 scale, 0 is no effect and 100 is complete control) [23]: 95
- Plant response rating, Rice (0 to 100 scale, 0 is no effect and 100 is complete control) [24]: 40
- Plant response rating, Barnyardgrass (0 to 100 scale, 0 is no effect and 100 is complete control) [25]: 85
- Plant response rating, Sedge, Umbrella (0 to 100 scale, 0 is no effect and 100 is complete control) [26]: 98
